Active and inactive are the calls of the source. The rule behind the calls is not given here.
Legend:
[1] = Inhibition of di-phosphorylated human Insulin receptor (978 to 1283 residues) C981S mutant kinase domain expressed in baculovirus infected Sf9 cells incubated for 1 hr by [gamma-33P]ATP assay
[2] = target: Serine/threonine-protein kinase B-raf (Homo sapiens) (UniProt P15056); experiment: Inhibition of human BRAF at 18.6 nM by HotSpot assay relative to control
[3] = target: CDK9/Cyclin K (Homo sapiens) (UniProt P50750+O75909); experiment: Inhibition of human CDK9/cyclin K at 18.6 nM by HotSpot assay relative to control; assay type: protein-complex assay
[4] = target: Tyrosine-protein kinase Fer (Homo sapiens) (UniProt P16591); experiment: Inhibition of human FER at 18.6 nM by HotSpot assay relative to control
[5] = target: T1, Serine/threonine-protein kinase 4 (Homo sapiens) (UniProt Q13043); experiment: Inhibition of human STK4 at 18.6 nM by HotSpot assay relative to control
T1 sequence (whole entry): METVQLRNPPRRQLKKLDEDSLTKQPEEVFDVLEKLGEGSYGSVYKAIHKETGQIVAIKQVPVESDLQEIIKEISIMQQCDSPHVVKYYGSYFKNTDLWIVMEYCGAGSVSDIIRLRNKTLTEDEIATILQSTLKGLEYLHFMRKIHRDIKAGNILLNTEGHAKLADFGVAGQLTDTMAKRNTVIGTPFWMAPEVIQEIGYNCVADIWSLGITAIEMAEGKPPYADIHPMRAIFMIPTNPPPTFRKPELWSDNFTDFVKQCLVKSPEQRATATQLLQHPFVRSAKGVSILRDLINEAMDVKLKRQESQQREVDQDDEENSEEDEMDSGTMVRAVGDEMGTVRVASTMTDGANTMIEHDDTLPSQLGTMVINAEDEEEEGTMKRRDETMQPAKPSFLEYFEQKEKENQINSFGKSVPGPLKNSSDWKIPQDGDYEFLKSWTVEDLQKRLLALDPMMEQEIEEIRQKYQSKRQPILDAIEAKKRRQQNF

[6] = target: Serine/threonine-protein kinase PAK 5 (Homo sapiens) (UniProt Q9P286); experiment: Inhibition of human PAK5 at 18.6 nM by HotSpot assay relative to control
Serine/threonine-protein kinase PAK 5 (Homo sapiens), sequence (Q9P286 whole entry, looked up): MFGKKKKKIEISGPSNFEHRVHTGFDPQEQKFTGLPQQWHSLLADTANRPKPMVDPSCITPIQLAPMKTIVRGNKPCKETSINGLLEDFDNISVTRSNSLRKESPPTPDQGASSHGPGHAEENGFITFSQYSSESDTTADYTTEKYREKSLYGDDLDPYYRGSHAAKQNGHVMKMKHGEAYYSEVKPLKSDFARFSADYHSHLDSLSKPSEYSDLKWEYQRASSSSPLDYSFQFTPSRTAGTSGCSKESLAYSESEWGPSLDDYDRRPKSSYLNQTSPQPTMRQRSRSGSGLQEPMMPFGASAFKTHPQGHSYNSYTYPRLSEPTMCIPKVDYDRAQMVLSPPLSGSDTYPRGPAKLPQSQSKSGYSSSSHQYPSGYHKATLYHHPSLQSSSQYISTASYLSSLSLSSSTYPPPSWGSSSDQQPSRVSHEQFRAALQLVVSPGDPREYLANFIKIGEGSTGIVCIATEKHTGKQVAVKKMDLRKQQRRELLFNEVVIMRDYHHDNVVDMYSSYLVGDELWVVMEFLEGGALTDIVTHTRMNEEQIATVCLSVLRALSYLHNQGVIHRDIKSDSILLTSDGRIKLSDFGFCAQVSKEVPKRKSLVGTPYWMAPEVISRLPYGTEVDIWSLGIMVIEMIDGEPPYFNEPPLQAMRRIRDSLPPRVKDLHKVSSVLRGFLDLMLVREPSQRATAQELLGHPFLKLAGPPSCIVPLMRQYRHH

[7] = target: T2, 3-phosphoinositide-dependent protein kinase 1 (Homo sapiens) (UniProt O15530); experiment: Inhibition of human PDPK1 at 18.6 nM by HotSpot assay relative to control
T2 sequence (whole entry): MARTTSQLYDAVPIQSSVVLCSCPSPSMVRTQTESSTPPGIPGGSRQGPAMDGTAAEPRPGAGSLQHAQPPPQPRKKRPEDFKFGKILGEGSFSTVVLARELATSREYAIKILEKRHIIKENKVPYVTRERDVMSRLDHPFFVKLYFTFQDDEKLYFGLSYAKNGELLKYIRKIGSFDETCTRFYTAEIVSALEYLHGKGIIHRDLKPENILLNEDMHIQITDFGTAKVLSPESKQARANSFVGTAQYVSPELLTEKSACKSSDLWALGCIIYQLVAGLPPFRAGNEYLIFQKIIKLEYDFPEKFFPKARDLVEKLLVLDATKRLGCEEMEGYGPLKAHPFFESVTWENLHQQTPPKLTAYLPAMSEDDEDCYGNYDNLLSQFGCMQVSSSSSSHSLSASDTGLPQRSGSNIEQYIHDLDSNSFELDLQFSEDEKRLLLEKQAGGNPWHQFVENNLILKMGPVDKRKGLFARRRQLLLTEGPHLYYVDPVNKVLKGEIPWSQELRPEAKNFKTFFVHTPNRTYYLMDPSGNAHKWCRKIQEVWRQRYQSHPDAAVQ

[8] = target: RAF proto-oncogene serine/threonine-protein kinase (Homo sapiens) (UniProt P04049); experiment: Inhibition of human RAF1 at 18.6 nM by HotSpot assay relative to control
RAF proto-oncogene serine/threonine-protein kinase (Homo sapiens), sequence (P04049 whole entry): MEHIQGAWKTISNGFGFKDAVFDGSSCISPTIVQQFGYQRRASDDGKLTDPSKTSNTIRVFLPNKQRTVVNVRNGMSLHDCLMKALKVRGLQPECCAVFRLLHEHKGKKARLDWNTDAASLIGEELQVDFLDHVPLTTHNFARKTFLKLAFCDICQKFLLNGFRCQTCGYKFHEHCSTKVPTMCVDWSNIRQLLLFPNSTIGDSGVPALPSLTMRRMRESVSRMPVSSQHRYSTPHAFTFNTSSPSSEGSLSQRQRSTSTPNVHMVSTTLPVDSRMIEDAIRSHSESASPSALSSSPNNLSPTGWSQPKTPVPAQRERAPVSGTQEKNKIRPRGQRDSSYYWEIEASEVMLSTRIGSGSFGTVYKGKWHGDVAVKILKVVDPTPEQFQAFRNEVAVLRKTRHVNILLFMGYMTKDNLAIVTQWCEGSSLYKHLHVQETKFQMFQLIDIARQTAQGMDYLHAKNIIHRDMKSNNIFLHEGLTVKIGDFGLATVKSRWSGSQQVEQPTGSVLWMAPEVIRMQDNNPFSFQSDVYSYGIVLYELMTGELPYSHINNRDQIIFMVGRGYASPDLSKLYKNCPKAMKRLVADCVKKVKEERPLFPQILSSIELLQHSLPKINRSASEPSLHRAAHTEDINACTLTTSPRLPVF

[9] = target: T3, Serine/threonine-protein kinase TAO1 (Homo sapiens) (UniProt Q7L7X3); experiment: Inhibition of human TAOK1 at 18.6 nM by HotSpot assay relative to control
T3 sequence (whole entry): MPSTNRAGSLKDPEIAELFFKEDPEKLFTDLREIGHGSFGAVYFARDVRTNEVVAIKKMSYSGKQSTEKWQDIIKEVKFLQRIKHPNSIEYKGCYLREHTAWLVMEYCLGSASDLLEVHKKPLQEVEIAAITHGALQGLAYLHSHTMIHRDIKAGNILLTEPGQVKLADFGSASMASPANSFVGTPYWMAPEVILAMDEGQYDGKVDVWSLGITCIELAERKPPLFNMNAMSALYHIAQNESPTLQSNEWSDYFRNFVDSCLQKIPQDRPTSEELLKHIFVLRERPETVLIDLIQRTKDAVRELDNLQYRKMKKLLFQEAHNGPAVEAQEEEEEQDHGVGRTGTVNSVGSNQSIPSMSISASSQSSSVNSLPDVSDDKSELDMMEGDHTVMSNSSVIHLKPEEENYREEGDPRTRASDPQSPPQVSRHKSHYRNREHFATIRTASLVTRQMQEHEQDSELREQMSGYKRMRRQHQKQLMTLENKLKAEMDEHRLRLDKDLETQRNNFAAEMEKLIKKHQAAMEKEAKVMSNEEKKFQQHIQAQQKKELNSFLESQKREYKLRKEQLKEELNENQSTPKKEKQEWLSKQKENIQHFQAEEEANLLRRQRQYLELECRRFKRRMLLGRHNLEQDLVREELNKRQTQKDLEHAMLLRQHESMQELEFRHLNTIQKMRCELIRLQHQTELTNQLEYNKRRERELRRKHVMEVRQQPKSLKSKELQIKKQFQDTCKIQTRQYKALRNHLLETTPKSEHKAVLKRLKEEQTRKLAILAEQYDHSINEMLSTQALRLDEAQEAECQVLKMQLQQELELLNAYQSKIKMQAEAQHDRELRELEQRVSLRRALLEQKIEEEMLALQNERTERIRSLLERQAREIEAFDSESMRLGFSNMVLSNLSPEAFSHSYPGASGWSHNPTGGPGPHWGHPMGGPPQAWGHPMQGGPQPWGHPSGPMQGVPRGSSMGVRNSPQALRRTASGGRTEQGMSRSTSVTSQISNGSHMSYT

[10] = target: Death-associated protein kinase 3 (Homo sapiens) (UniProt O43293); experiment: Inhibition of human DAPK3 at 18.6 nM by HotSpot assay relative to control
Death-associated protein kinase 3 (Homo sapiens), sequence (O43293 whole entry, looked up): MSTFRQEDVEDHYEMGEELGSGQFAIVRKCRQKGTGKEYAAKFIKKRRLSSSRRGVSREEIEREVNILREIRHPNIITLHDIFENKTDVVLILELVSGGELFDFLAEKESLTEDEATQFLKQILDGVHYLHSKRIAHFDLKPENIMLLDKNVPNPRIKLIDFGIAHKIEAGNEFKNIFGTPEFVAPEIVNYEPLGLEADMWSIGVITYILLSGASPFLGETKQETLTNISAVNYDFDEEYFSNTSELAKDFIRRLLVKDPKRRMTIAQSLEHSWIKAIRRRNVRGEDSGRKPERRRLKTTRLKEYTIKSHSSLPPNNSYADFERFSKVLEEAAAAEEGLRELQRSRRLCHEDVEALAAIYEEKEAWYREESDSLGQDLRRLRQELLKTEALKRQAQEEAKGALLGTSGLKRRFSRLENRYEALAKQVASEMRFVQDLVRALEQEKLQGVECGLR

[11] = target: Serine/threonine-protein kinase WNK2 (Homo sapiens) (UniProt Q9Y3S1); experiment: Inhibition of human WNK2 at 1.82 nM by HotSpot assay relative to control
Serine/threonine-protein kinase WNK2 (Homo sapiens), sequence (Q9Y3S1 whole entry): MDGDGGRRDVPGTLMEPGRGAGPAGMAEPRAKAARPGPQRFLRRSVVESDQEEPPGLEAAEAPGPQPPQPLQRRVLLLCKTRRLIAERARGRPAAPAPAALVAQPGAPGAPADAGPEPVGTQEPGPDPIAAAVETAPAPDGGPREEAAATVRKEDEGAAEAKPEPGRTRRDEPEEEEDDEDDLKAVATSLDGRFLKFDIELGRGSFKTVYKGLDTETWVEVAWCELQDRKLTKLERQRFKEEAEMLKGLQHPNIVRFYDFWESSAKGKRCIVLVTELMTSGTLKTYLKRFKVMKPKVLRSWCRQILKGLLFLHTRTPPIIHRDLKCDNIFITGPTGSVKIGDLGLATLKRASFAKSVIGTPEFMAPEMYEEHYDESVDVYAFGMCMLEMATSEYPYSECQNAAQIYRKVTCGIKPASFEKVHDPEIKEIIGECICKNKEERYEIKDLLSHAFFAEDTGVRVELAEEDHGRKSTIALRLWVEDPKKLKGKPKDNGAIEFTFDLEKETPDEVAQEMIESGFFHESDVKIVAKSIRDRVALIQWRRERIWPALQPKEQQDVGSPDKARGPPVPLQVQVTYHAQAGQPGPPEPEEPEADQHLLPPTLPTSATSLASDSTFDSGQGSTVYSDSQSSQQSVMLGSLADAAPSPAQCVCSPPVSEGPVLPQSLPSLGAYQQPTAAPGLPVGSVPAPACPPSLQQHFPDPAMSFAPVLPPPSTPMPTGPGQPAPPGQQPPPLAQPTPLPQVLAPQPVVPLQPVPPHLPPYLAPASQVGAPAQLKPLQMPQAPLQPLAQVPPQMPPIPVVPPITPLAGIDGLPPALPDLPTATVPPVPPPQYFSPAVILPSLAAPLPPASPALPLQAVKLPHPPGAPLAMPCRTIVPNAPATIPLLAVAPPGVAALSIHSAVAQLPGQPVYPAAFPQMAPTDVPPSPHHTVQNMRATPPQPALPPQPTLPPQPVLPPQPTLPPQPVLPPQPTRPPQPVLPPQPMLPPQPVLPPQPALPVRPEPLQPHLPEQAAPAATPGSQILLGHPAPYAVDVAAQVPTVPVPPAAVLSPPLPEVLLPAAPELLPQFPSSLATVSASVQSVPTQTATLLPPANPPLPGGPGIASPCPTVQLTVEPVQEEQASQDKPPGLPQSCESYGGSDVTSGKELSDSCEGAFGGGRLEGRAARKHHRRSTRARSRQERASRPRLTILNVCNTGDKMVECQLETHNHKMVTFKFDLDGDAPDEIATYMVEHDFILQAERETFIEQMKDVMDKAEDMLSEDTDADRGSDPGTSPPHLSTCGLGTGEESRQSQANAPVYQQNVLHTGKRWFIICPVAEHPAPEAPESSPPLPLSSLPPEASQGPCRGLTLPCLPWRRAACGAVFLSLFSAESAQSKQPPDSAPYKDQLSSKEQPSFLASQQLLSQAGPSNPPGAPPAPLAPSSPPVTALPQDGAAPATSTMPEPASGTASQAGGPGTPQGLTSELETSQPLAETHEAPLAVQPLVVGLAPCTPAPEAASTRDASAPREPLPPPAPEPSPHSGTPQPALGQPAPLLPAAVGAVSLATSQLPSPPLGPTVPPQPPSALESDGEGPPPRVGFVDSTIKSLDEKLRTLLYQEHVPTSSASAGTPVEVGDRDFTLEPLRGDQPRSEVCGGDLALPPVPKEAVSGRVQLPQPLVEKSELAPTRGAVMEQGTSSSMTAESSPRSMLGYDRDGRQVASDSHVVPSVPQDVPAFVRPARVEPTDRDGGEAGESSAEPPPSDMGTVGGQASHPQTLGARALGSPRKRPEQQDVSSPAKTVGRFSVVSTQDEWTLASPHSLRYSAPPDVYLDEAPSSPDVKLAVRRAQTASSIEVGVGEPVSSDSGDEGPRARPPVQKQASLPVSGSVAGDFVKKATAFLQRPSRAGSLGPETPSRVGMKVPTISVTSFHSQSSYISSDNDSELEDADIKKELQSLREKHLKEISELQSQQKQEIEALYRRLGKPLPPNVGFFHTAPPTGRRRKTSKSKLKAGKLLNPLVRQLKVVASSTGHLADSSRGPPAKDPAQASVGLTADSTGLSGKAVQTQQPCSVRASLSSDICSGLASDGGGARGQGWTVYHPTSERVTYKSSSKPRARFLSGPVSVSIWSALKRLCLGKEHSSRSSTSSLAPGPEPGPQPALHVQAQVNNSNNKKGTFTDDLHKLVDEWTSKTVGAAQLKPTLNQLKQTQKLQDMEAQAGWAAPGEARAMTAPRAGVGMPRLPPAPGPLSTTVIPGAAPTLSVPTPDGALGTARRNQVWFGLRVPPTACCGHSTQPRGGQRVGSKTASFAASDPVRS

Serine/threonine-protein kinase B-raf (Homo sapiens), sequence (P15056 whole entry): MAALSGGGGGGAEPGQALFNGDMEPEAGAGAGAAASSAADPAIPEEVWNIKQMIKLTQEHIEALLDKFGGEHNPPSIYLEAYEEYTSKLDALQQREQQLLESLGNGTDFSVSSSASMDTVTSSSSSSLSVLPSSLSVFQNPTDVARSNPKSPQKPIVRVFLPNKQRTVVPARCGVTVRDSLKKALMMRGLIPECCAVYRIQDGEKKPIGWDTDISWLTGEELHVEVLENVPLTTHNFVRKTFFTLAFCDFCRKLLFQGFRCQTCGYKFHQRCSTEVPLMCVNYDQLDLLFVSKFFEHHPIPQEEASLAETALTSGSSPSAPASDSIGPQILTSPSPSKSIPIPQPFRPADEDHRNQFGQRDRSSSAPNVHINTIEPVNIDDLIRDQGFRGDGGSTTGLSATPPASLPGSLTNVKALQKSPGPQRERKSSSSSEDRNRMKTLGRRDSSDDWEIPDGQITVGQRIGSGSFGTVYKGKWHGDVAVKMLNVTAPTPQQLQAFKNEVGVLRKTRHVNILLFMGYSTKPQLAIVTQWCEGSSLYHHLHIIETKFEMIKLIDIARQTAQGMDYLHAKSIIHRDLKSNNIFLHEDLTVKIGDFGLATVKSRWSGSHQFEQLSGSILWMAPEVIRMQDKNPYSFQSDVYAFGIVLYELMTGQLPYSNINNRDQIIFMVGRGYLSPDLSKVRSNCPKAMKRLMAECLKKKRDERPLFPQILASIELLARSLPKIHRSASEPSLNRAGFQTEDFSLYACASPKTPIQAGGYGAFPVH

**Q.** Which inhibition [1] does the source give for `Oc1n[nH]c2nnc(-c3c(-c4ccccc4)nn4ccccc34)cc12` here?
**A.** inactive

**Q.** What does the source list for `C[C@]1(O)C[C@@H](c2nc(-c3ccc4ccc(-c5ccccc5)nc4c3)c3c(N)nccn32)C1`?
**A.** inhibition [2]: 7.79%; inhibition [3]: 1.45%; inhibition [4]: -4.79%; inhibition [5]: 6.04%; inhibition [6]: -1.6%; inhibition [7]: -0.41%; inhibition [8]: -5.79%; inhibition [9]: 0.77%; inhibition [10]: 6.02%

**Q.** With `C[C@@]1(C(=O)Nc2ccc(F)nc2)CCCN1c1nc(Nc2cc(C3CC3)n[nH]2)c2cccn2n1` as the molecule, how does the inhibition [11] read?
**A.** -1.14%

Reference: ChEMBL document CHEMBL5653615 (J Biol Chem, 2013)
